Assay results reported in article PMC11205194 (Marine Drugs, 2024).

Test system: SARS-CoV-2 3CLpro
Conditions: pH 7; for Inhibition of free 3CL protease by synthesized peptides: SD

| Compound | Inhibition of free 3CL protease by synthesized peptides [%] | Inhibition of the 3CLpro control's enzymatic activity [%] |
| --- | --- | --- |
| VVGVVVY [PEP 1, Val-Val-Gly-Val-Val-Val-Tyr] | 9.3 ± 5.7 |  |
| EVLEFFKYLE [PEP 7] | 7.6 ± 1.3 |  |
| EVLEFFKYIE [PEP 5] | 0.01 ± 3.8 |  |
| COc1cccc2[nH]c(C(=O)N[C@@H](CC(C)C)C(=O)N[C@@H](C[C@@H]3CCNC3=O)C(=O)CO)cc12 [PF-00835231, reference compound] |  | 94.9 |
